Source: patent US20250230151A1, “COMPOUNDS FOR CANCERS DRIVEN BY BRAF MUTATION” (THE BOARD OF TRUSTEES OF THE UNIVERSITY OF ILLINOIS, priority 2021, published 2025)

What was measured:
[1] = test system: A375 cells; assay: 72-hour cell viability assay (Alamar Blue), A375; type: cell-based, human; details: for IC50: 72-hour incubation, Alamar Blue, V600E BRAF; for Emax: A-375, A375, 72-hour incubation
Description: Cell Culture and reagents. All cell lines were grown in a 37° C., 5% CO2, humidified environment, in media containing 1% penicillin/streptomycin. Cell culture conditions are as follows: MDCK cells transfected with MDR1 (or ABCB1) were obtained from the Netherlands Cancer Institute (Amsterdam, The Netherlands) and maintained in DMEM with 10% fetal bovine serum (FBS, Gemini). Traditional cell lines A375, CHL-1, B16F10, and U118MG were grown in DMEM with 10% FBS, SK-MEL-28, U87 and T98G in EMEM with 10% FBS, AM-38 in EMEM with 20% HI-FBS (Gibco), HT29 in McCoy's 5A with 10% FBS, HCT116 in RPMI with 10% FBS. Compounds were dissolved in DMSO (1% final concentration, Sigma-Aldrich) for cell culture studies.
Cell viability assays. Cells were harvested, seeded in a 96-well plate and allowed to adhere overnight. Compound was added to each well in DMSO (1% final concentration). Cells were incubated for 72 hours before viability was assessed by the Alamar Blue Assay. Raptinal ([…]) was used as a dead control.

[2] = target: T1, P-gp (Homo sapiens, UniProt P08183); assay: MDR1-MDCK P-gp transwell bidirectional transport assay; type: in vitro ADME; details: 10 μM, 90 min; for Papp A→B at 90 min, 10 µM / Papp B→A at 90 min, 10 µM / efflux ratio at 90 min, 10 µM: dog, MDCK-MDR1, MDR1-MDCK; for efflux ratio at 90 min, 10 µM: read-out: ER (efflux ratio) (converted)
T1 construct: host or cells: MDCK (MDR1-MDCK)
T1 sequence (P08183 whole entry): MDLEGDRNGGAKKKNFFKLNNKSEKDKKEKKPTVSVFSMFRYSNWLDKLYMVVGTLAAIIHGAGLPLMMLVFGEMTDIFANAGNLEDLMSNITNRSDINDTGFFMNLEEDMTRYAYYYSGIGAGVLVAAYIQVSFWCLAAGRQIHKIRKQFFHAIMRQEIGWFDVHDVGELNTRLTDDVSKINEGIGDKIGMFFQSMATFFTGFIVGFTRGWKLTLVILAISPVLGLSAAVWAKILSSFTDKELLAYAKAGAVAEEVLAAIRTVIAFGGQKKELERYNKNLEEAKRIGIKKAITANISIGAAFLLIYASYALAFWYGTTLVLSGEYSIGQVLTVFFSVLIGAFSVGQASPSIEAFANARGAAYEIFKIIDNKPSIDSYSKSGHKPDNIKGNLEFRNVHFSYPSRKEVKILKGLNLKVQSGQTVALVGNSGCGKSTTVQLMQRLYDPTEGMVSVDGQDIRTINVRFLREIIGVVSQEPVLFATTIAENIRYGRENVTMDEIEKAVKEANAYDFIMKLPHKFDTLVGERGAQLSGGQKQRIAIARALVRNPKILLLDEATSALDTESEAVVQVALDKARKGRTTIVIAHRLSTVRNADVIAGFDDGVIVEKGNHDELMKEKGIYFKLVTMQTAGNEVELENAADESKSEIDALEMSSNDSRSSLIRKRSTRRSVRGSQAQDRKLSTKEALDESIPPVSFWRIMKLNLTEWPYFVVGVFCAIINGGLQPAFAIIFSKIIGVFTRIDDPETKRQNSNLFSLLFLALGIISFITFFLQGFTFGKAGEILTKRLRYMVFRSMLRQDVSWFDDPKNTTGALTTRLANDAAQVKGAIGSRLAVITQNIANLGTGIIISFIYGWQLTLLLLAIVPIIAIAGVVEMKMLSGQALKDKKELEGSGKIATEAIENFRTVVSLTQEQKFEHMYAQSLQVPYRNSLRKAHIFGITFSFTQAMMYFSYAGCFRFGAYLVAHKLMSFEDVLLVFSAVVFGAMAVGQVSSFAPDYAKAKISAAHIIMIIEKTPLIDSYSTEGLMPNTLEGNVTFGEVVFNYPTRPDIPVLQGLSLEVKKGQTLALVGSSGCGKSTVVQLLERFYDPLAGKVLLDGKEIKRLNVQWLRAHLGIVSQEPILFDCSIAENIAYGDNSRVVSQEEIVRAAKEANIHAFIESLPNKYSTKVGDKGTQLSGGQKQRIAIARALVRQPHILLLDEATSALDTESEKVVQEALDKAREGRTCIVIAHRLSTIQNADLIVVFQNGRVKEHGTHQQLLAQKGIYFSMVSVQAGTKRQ
Description: A novel compound collection composed of complex and diverse compounds derived from natural products, termed “Complexity-to-Diversity Collection” was employed. […] The CtD compounds were evaluated by the efflux pump and their permeability using the P-gp transwell assay using adapted and optimized known protocols. Compound transport across epithelial cells overexpressing P-gp from basolateral-to-apical and apical-to-basolateral directions were quantified to calculate permeability and efflux ratio.
P-gp transwell bidirectional transport assays. Unless noted otherwise, the transport assay was performed in triplicate in batches of 16 or 24 test compounds, with each batch containing quinidine as a substrate control and propranolol as a non-substrate control. MDR1-MDCK cells were plated at a density of 300,000 cells/cm^2 onto 96-well Falcon™ Multiwell Insert System with 1 µm pore polycarbonate filters with angled-bottom receiver plates (Coming) and were fed with the cell growth medium on day 2.
The donor solution was prepared by adding 1 mM DMSO stocks of compounds to make the final concentration […], and the receiver solution was prepared with equivalent volume of DMSO to make 1% DMSO in final assay chamber volumes.
After 80-96 hours since seeding, the growth media on both sides was aspirated. To the transwell plate (apical side), 50 μL of receiver and donor solutions prepared on a 96-well plate were added, and it was placed on top of a separate angled-bottom 96-well plate (basolateral side) containing 260 μL of receiver and donor solutions.
Following 90 minutes of incubation at 37° C. with shaking at 90 rpm, 20 μL aliquot of samples were taken from both the donor and receiver chambers, and the apical and basolateral sides. Aliquots of 4 test compounds were pooled for each category: apical-donor, apical-receiver, basolateral-donor, basolateral-receiver. To measure CO and mass balance, initial donor samples from both apical and basolateral side were set aside from the assay plate. Acetonitrile twice the volume of pooled samples was added and mixed thoroughly, and precipitated proteins were removed by centrifugation at 20,000 r.c.f for 10 minutes.
To ascertain the MDCK monolayer integrity, the solution on apical side contained 100 µM Lucifer Yellow (Millipore-Sigma). After 90 minutes of compound transport, Lucifer Yellow concentration in the basal well was measured using SpectraMax M3 (Molecular Devices) set to an excitation wavelength of 430 nm and an emission wavelength of 540 nm.
Samples were analyzed with the 5500 QTRAP LC/MS/MS system (AB Sciex) with a 1200 series HPLC system (Agilent Technologies) including a degasser, an autosampler, and a binary pump. The liquid chromatography separation was performed on an Agilent SB-Aq column (4.6×50 mm, 5 μm) (Agilent Technologies) with mobile phase A (0.1% formic acid in water) and mobile phase B (0.1% formic acid in acetonitrile). The flow rate was 0.3 ml min^−1. The linear gradient was optimized for each compound. The autosampler was set at 5° C. The injection volume was 15 μL. Mass spectra were acquired with both positive electrospray ionization at the ion spray voltage of 5,500 V and negative electrospray ionization at the ion spray voltage of −4,500 V. The source temperature was 450° C. The curtain gas, ion source gas 1, and ion source gas 2 were 33, 50 and 65, respectively. Multiple reaction monitoring was used to quantify metabolites.
Efflux data calculations.

| SMILES | IC50 ([1]; Homo sapiens, A-375, 72 h) [nM] | Papp A→B at 90 min, 10 µM [2] [×10⁻⁶ cm/s] | Papp B→A at 90 min, 10 µM [2] [×10⁻⁶ cm/s] | efflux ratio at 90 min, 10 µM [2] | IC50 [1] [nM] | Emax ([1]; Homo sapiens) [%] | Papp A-B ([2]; MDR1-MDCK) [×10⁻⁶ cm/s] | Papp B-A ([2]; MDR1-MDCK) [×10⁻⁶ cm/s] | ER (efflux ratio) ([2]; MDR1-MDCK) |
| --- | --- | --- | --- | --- | --- | --- | --- | --- | --- |
| CC(C)(C)c1nc(-c2cccc(NS(=O)(=O)c3c(F)cccc3F)c2F)c(-c2ccnc(Nc3ccc(C(=O)O)cc3)n2)s1 [6-77, 4-((4-(2-(tert-butyl)-4-(3-((2,6-difluorophenyl)sulfonamido)-2-fluorophenyl)thiazol-5-yl)pyrimidin-2-yl)amino)benzoic acid] | > 1000 | 1.58 ± 0.335 | 1.45 ± 0.077 | 0.984 ± 0.164 |  |  |  |  |  |
| CC(C)(C)c1nc(-c2cccc(NS(=O)(=O)c3c(F)cccc3F)c2F)c(-c2ccnc(NCCCCC(=O)O)n2)s1 [6-83, 5-((4-(2-(tert-butyl)-4-(3-((2,6-difluorophenyl)sulfonamido)-2-fluorophenyl)thiazol-5-yl)pyrimidin-2-yl)amino)pentanoic acid] | 115 | 1.09 ± 0.097 | 2.17 ± 0.371 | 1.96 ± 0.22 | 115 ± 9.85 | 65 | 1.089 ± 0.097 | 2.165 ± 0.371 |  |
| CC(C)(C)c1nc(-c2cccc(NS(=O)(=O)c3c(F)cccc3F)c2F)c(-c2ccnc(N[C@H]3CC[C@@H](C(=O)O)CC3)n2)s1 [6-85, (1s,4s)-4-((4-(2-(tert-butyl)-4-(3-((2,6-difluorophenyl)sulfonamido)-2-fluorophenyl)thiazol-5-yl)pyrimidin-2-yl)amino)cyclohexane-1-carboxylic acid] | 474 ± 11.8 | 0.709 ± 0.045 | 2.26 ± 0.32 | 3.22 ± 0.54 |  |  |  |  |  |
| CC(C)(C)c1nc(-c2cccc(NS(=O)(=O)c3c(F)cccc3F)c2F)c(-c2ccnc(NCCCC(=O)O)n2)s1 [6-86, 4-((4-(2-(tert-butyl)-4-(3-((2,6-difluorophenyl)sulfonamido)-2-fluorophenyl)thiazol-5-yl)pyrimidin-2-yl)amino)butanoic acid] | 628 ± 105 | 0.844 ± 0.214 | 0.445 ± 0.04 | 0.61 ± 0.16 | 628 ± 105 | 65 |  |  | 0.607 ± 0.16 |
| CC(C)(C)c1nc(-c2cccc(NS(=O)(=O)c3c(F)cccc3F)c2F)c(-c2ccnc(N[C@H]3CC[C@H](C(=O)O)CC3)n2)s1 [6-89, (1r,4r)-4-((4-(2-(tert-butyl)-4-(3-((2,6-difluorophenyl)sulfonamido)-2-fluorophenyl)thiazol-5-yl)pyrimidin-2-yl)amino)cyclohexane-1-carboxylic acid] | 166 ± 4.09 | 2.24 ± 0.126 | 1.25 ± 0.436 | 0.56 ± 0.18 | 166 ± 4.09 |  | 2.237 ± 0.126 | 1.251 ± 0.436 |  |
| CC(C)(C)c1nc(-c2cccc(NS(=O)(=O)c3c(F)cccc3F)c2F)c(-c2ccnc(N[C@@H]3CC[C@H](C(=O)O)C3)n2)s1 [6-91, (1S,3R)-3-((4-(2-(tert-butyl)-4-(3-((2,6-difluorophenyl)sulfonamido)-2-fluorophenyl)thiazol-5-yl)pyrimidin-2-yl)amino)cyclopentane-1-carboxylic acid] | > 1000 | 0.493 ± 0.148 | 0.626 ± 0.238 | 1.3 ± 0.38 |  |  |  |  |  |
| CC(C)(C)c1nc(-c2cccc(NS(=O)(=O)c3c(F)cccc3F)c2F)c(-c2ccnc(CCC(=O)O)n2)s1 [6-97, 3-(4-(2-(tert-butyl)-4-(3-((2,6-difluorophenyl)sulfonamido)-2-fluorophenyl)thiazol-5-yl)pyrimidin-2-yl)propanoic acid] | > 1000 | 0.868 ± 0.021 | 0.741 ± 0.156 | 0.86 ± 0.19 |  |  |  |  |  |
| CC(C)(C)c1nc(-c2cccc(NS(=O)(=O)c3c(F)cccc3F)c2F)c(-c2ccnc(NCCCCc3nnn[nH]3)n2)s1 [6-121, N-(3-(5-(2-((4-(1H-tetrazol-5-yl)butyl)amino)pyrimidin-4-yl)-2-(tert-butyl)thiazol-4-yl)-2-fluorophenyl)-2,6-difluorobenzenesulfonamide] | 1270 ± 54.4 |  | 0.325 ± 0.124 |  |  | 60 |  |  |  |
| CC(C)(C)c1nc(-c2cccc(NS(=O)(=O)c3c(F)cccc3F)c2F)c(-c2ccnc(CCCCC(=O)O)n2)s1 [6-131, 5-(4-(2-(tert-butyl)-4-(3-((2,6-difluorophenyl)sulfonamido)-2-fluorophenyl)thiazol-5-yl)pyrimidin-2-yl)pentanoic acid] | 1580 ± 458 | 0.449 ± 0.008 | 1.03 ± 0.166 | 1.93 ± 0.08 |  | 60 |  |  |  |
| CC(C)(C)c1nc(-c2c(F)ccc(NS(=O)(=O)c3cc(C(F)(F)F)ccc3C(F)(F)F)c2F)c(-c2ccnc(N)n2)s1 [6-145, N-(3-(5-(2-aminopyrimidin-4-yl)-2-(tert-butyl)thiazol-4-yl)-2,4-difluorophenyl)-2,5-bis(trifluoromethyl)benzenesulfonamide] | > 3000 | 0.94 ± 0.05 | 5.66 ± 0.19 | 6.05 ± 0.5 |  |  |  |  |  |
| CC(C)(C)c1nc(-c2cccc(NS(=O)(=O)c3cc(C(F)(F)F)ccc3C(F)(F)F)c2F)c(-c2ccnc(N)n2)s1 [6-163, N-(3-(5-(2-aminopyrimidin-4-yl)-2-(tert-butyl)thiazol-4-yl)-2-fluorophenyl)-2,5-bis(trifluoromethyl)benzenesulfonamide] | > 3000 |  |  |  |  |  |  |  |  |
| CC(C)(C)c1nc(-c2cccc(NS(=O)(=O)c3ccc(F)cc3C(F)(F)F)c2F)c(-c2ccnc(N)n2)s1 [6-166, N-(3-(5-(2-aminopyrimidin-4-yl)-2-(tert-butyl)thiazol-4-yl)-2-fluorophenyl)-4-fluoro-2-(trifluoromethyl)benzenesulfonamide] | > 3000 |  |  |  |  |  |  |  |  |
| CC(C)(C)c1nc(-c2c(F)ccc(NS(=O)(=O)c3ccc(F)cc3C(F)(F)F)c2F)c(-c2ccnc(N)n2)s1 [6-167, N-(3-(5-(2-aminopyrimidin-4-yl)-2-(tert-butyl)thiazol-4-yl)-2,4-difluorophenyl)-4-fluoro-2-(trifluoromethyl)benzenesulfonamide] | > 3000 |  |  |  |  |  |  |  |  |
| CC(C)(C)c1nc(-c2cccc(NS(=O)(=O)c3ccc(F)cc3C(F)(F)F)c2F)c(-c2ccnc(NCCCCC(=O)O)n2)s1 [6-181, 5-((4-(2-(tert-butyl)-4-(2-fluoro-3-((4-fluoro-2-(trifluoromethyl)phenyl)sulfonamido)phenyl)thiazol-yl)pyrimidin-2-yl)amino)pentanoic acid] | > 50000 |  |  |  |  |  |  |  |  |
| CC(C)(C)c1nc(-c2cccc(NS(=O)(=O)c3c(F)cccc3F)c2F)c(-c2ccnc(CCCCCC(=O)O)n2)s1 [6-193, 6-(4-(2-(tert-butyl)-4-(3-((2,6-difluorophenyl)sulfonamido)-2-fluorophenyl)thiazol-5-yl)pyrimidin-2-yl)hexanoic acid] | 1750 ± 21.9 |  |  |  |  | 60 |  |  |  |
| CC(C)NCC(O)COc1cccc2ccccc12 (stereo not shown) [Propranolol, reference compound] |  |  |  | 1.18 |  |  |  |  |  |
| C=C[C@H]1C[N@@]2CC[C@H]1C[C@@H]2[C@@H](O)c1ccnc2ccc(OC)cc12 [Quinidine, reference compound] |  |  |  | 8.09 |  |  |  |  |  |
